Data set [1] concerns Klebsiella pneumoniae. In words: microbe, parasite or virus in culture.
Description: In vitro antibacterial activity against Klebsiella pneumoniae (CN 3632)
Data set [2] has as its system Salmonella. As to the kind of experiment: In vitro antibacterial activity against Salmonella typhi (CN512).
The test system of data set [3] is Proteus vulgaris. In words: In vitro antibacterial activity against Proteus vulgaris (CN3296).
For data set [4], the system named is Shigella flexneri. In words: In vitro antibacterial activity against Shigella flexneri (CN6007).
Data set [5] concerns the target T1, Dihydrofolate reductase (Rattus norvegicus, UniProt Q920D2).
T1 sequence (Q920D2 whole entry): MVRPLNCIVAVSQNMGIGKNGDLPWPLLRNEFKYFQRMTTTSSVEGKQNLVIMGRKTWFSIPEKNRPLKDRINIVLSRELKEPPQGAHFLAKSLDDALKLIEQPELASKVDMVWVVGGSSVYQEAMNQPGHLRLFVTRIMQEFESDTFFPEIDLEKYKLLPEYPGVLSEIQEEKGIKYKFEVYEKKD
As to the kind of experiment: Inhibitory activity against dihydrofolate reductase (DHFR) enzyme from rat liver. Conditions: read-out: I50.

Data set [6] has as its system Staphylococcus aureus. In words: In vitro antibacterial activity against Staphylococcus aureus (CN491).
For data set [7], the system named is Escherichia coli. As to the kind of experiment: In vitro antibacterial activity against Escherichia coli (CN314).
Data set [8] deals with Klebsiella aerogenes. In words: In vitro antibacterial activity against Enterobacter aerogenes (2200/86).
For data set [9], the target named is T2, Dihydrofolate reductase (Gallus gallus, UniProt P00378).
T2 sequence (P00378 whole entry): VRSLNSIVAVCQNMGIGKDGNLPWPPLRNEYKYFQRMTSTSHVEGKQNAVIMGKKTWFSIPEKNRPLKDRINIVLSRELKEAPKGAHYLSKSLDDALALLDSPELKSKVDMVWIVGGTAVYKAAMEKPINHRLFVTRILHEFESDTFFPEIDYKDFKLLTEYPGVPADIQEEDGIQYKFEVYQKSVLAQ
As to the kind of experiment: Inhibitory activity against dihydrofolate reductase (DHFR) enzyme from chicken liver. Conditions: read-out: I50.

In data set [10] the target is Bifunctional dihydrofolate reductase-thymidylate synthase (Plasmodium berghei str. ANKA, UniProt Q27713). In words: Inhibitory activity against dihydrofolate reductase (DHFR) enzyme from Plasmodium berghei. Conditions: read-out: I50.
Sequence of Bifunctional dihydrofolate reductase-thymidylate synthase (Q27713 whole entry): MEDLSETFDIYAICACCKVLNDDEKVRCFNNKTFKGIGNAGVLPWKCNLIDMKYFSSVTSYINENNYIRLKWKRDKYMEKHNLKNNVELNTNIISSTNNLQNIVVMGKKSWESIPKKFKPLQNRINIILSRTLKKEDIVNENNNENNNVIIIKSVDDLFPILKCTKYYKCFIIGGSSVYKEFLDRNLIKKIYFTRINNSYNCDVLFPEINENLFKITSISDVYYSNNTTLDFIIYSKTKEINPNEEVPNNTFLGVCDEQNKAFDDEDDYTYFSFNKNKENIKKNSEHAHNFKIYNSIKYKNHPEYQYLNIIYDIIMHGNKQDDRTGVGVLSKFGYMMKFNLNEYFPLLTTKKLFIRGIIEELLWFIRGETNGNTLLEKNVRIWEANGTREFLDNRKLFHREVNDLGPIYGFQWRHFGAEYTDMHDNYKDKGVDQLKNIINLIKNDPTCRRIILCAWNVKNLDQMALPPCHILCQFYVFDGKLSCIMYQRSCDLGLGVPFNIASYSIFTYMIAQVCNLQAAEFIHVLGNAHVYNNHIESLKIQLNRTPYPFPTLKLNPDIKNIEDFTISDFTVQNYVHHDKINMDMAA
Data set [11] can be described thus: Partition coefficient (logP). The format is physicochemical. The following applies: octanol/water.
Data set [12] in a line: Acid dissociation constant was determined. The format is ADME.

Molecules are shown by their SMILES. Converted amounts (≈) assume the structure as drawn. Bounds are passed on as bounds.

On to `CCc1ccc(Cc2cnc(N)nc2N)cc1`, for which the MIC turned out to be 30 µg/mL (≈ 131 µM) in data set [1]; 10 µg/mL (≈ 43.8 µM) in [2]; 30 µg/mL (≈ 131 µM) in [3]; 10 µg/mL (≈ 43.8 µM) in [4]; 30 µg/mL (≈ 131 µM) in data set [6]; 10 µg/mL (≈ 43.8 µM) in [7]. The same compound gave an MIC in [8] of 10 µg/mL (≈ 43.8 µM). Moreover, the IC50 in [5] is greater than 40 µM.

For the compound `CC(C)c1ccc(Cc2cnc(N)nc2N)cc1`, the MIC was determined as 16 µg/mL (≈ 66 µM) in data set [2]; 125 µg/mL (≈ 516 µM) in data set [3]; 32 µg/mL (≈ 132 µM) in data set [4]; 8 µg/mL (≈ 33 µM) in data set [6]; 16 µg/mL (≈ 66 µM) in [7]. Moreover, in [5], the IC50 came out at 210 µM.

Consider `CC(C)(C)c1ccc(Cc2cnc(N)nc2N)cc1`, for which the MIC in data set [1] was 100 µg/mL (≈ 390 µM); in data set [2] it was 10 µg/mL (≈ 39 µM); in data set [3], 100 µg/mL (≈ 390 µM); in data set [4] it was 30 µg/mL (≈ 117 µM); in data set [6] it was 10 µg/mL (≈ 39 µM); in data set [7] it was 10 µg/mL (≈ 39 µM). The MIC in data set [8] is 30 µg/mL (≈ 117 µM). In data set [5], the IC50 stood at 230 µM.

Regarding `CCc1ccc(Cc2cnc(N)nc2N)cc1C(C)C`, the MIC in data set [1] turned out to be 100 µg/mL (≈ 370 µM); in data set [2], 10 µg/mL (≈ 37 µM); in data set [3] it was 100 µg/mL (≈ 370 µM); in data set [4], 30 µg/mL (≈ 111 µM); in data set [6], 3 µg/mL (≈ 11.1 µM); in data set [7] it was 30 µg/mL (≈ 111 µM). The MIC in [8] amounted to 100 µg/mL (≈ 370 µM). Further, the IC50 in data set [5] is 29 µM.

As to `CCc1ccc(Cc2cnc(N)nc2N)cc1CC`, the MIC worked out at 30 µg/mL (≈ 117 µM) in [1]; 3 µg/mL (≈ 11.7 µM) in [2]; 30 µg/mL (≈ 117 µM) in [3]; 10 µg/mL (≈ 39 µM) in [4]; 3 µg/mL (≈ 11.7 µM) in [6]; 3 µg/mL (≈ 11.7 µM) in [7]. This compound showed an MIC in [8] of 10 µg/mL (≈ 39 µM). Besides, the IC50 was determined as 120 µM in [9], 0.068 µM in [10] and 59 µM in [5].

For `COc1ccc(Cc2cnc(N)nc2N)cc1OC` [DIAVERIDINE], the MIC in data set [1] is 5 µg/mL (≈ 19.2 µM); in [2], 0.1 µg/mL (≈ 0.384 µM); in data set [3] it was 5 µg/mL (≈ 19.2 µM); in [4], 0.5 µg/mL (≈ 1.92 µM); in data set [6], 5 µg/mL (≈ 19.2 µM); in [7] it was 0.5 µg/mL (≈ 1.92 µM). In addition, the MIC in data set [8] was determined as 0.5 µg/mL (≈ 1.92 µM). Besides, the IC50 in data set [9] worked out at 300 µM; in data set [10], 0.21 µM; in data set [5] it was 78 µM.

As to `CCc1cc(Cc2cnc(N)nc2N)cc(CC)c1CC`, the MIC in [1] was 10 µg/mL (≈ 35.2 µM); in data set [2], 1 µg/mL (≈ 3.52 µM); in data set [3] it was 30 µg/mL (≈ 105 µM); in data set [4], 3 µg/mL (≈ 10.5 µM); in data set [6], 0.1 µg/mL (≈ 0.352 µM); in data set [7] it was 1 µg/mL (≈ 3.52 µM). For the same compound, in data set [8], the MIC was 10 µg/mL (≈ 35.2 µM). In addition, the values for the IC50 in data set [9], in data set [10] and in [5] were 33 µM, 0.073 µM and 38 µM, respectively. Moreover, the logP in data set [11] came out at 1.33. This compound yielded a pKa in data set [12] of 7.12.

For `COc1cc(Cc2cnc(N)nc2N)cc(OC)c1OC` [TRIMETHOPRIM], the MIC in data set [1] stood at 1 µg/mL (≈ 3.44 µM); in data set [2] it was 0.03 µg/mL (≈ 0.103 µM); in data set [3] it was 1 µg/mL (≈ 3.44 µM); in [4], 0.1 µg/mL (≈ 0.344 µM); in data set [6], 0.3 µg/mL (≈ 1.03 µM); in data set [7] it was 0.1 µg/mL (≈ 0.344 µM). The MIC in data set [8] was 0.3 µg/mL (≈ 1.03 µM).

As to `COc1ccc(Cc2cnc(N)nc2N)cc1`, the IC50 in data set [5] stood at 170 µM.
